According to ChEMBL document CHEMBL1155072, “Urotensin-II receptor antagonists: synthesis and SAR of N-cyclic azaalkyl benzamides” (Bioorg Med Chem Lett, 2008):

How the values were obtained:
[1] = molecular target: T1, Urotensin-2 receptor (Homo sapiens, UniProt Q9UKP6); test: Displacement of [I125]hU2 from human recombinant urotensin 2 receptor expressed in HEK293 cells; type: cell-based
T1 sequence (Q9UKP6 whole entry): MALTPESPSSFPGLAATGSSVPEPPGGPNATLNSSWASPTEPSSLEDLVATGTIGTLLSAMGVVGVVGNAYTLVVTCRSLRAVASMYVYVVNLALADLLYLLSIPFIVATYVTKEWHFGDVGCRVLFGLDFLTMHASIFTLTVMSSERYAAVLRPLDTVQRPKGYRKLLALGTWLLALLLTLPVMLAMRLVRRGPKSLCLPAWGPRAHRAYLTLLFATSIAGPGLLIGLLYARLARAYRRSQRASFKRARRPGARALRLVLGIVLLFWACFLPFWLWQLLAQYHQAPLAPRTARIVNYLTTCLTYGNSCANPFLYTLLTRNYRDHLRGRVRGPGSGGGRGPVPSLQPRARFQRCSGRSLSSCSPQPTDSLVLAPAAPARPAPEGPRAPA

[2] = molecular target: T1, Urotensin-2 receptor; test: Antagonist activity at human recombinant urotensin 2 receptor expressed in HEK293 cells assessed as inhibition of urotensin 2-induced calcium mobilization by FLIPR assay; type: functional, cell-based
[3] = molecular target: T2, 5-hydroxytryptamine receptor 1A (Homo sapiens, UniProt P08908); test: Binding affinity to 5HT1A receptor
T2 sequence (P08908 whole entry): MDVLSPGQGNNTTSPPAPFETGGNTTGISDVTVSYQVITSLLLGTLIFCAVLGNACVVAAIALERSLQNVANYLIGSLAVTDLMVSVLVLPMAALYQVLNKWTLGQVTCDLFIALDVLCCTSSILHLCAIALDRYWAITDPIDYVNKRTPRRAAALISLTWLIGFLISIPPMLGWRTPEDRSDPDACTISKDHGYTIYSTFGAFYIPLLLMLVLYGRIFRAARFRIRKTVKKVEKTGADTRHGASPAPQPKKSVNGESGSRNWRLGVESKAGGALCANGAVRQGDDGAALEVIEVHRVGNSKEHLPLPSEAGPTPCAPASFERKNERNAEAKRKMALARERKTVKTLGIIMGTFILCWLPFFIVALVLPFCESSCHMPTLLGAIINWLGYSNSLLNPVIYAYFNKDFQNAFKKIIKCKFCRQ

[4] = molecular target: 5-hydroxytryptamine receptor 2B (Homo sapiens, UniProt P41595); test: Binding affinity at 5HT2B receptor
Sequence of 5-hydroxytryptamine receptor 2B (P41595 whole entry): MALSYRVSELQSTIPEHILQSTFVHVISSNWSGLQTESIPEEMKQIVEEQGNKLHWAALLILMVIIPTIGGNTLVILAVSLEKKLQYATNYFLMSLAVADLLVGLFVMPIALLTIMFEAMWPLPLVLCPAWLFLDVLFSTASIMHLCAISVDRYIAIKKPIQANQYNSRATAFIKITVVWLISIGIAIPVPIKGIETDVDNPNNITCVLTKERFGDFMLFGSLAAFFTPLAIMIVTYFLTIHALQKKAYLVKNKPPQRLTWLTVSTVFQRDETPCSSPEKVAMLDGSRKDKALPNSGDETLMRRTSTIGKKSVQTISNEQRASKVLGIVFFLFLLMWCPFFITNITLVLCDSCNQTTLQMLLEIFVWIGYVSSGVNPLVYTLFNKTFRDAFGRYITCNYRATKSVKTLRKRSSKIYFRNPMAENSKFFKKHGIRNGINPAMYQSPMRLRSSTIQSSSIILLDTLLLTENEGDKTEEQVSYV

[5] = molecular target: T3, 5-hydroxytryptamine receptor 2C (Homo sapiens, UniProt P28335); test: Binding affinity at 5HT2C receptor
T3 sequence (P28335 whole entry): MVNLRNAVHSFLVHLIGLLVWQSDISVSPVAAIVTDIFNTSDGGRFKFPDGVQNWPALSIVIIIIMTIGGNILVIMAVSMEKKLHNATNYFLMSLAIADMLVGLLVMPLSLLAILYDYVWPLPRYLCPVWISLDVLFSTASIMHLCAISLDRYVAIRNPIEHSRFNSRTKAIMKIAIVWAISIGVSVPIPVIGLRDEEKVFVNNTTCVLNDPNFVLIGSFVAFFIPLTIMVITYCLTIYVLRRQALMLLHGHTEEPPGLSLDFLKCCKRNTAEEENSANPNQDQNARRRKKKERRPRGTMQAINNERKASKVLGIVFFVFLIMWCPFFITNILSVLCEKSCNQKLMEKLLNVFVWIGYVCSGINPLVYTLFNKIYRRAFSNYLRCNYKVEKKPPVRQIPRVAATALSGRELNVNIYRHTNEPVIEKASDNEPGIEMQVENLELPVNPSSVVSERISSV

[6] = molecular target: 5-hydroxytryptamine receptor 6 (Homo sapiens, UniProt P50406); test: Binding affinity to 5HT6 receptor
Sequence of 5-hydroxytryptamine receptor 6 (P50406 whole entry): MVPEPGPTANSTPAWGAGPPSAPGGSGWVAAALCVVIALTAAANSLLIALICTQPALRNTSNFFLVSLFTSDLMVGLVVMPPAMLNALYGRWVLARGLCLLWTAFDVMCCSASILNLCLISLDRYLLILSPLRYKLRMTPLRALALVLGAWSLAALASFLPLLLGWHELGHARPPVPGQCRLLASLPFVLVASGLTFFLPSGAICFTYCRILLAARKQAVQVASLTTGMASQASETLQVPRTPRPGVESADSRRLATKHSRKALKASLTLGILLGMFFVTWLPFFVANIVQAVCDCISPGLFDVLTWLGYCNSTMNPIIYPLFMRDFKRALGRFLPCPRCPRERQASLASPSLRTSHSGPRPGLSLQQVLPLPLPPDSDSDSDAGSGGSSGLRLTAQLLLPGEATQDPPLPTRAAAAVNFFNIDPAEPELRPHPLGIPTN

[7] = molecular target: T4, 5-hydroxytryptamine receptor 1F (Homo sapiens, UniProt P30939); test: Binding affinity to 5HT1F receptor
T4 sequence (P30939 whole entry): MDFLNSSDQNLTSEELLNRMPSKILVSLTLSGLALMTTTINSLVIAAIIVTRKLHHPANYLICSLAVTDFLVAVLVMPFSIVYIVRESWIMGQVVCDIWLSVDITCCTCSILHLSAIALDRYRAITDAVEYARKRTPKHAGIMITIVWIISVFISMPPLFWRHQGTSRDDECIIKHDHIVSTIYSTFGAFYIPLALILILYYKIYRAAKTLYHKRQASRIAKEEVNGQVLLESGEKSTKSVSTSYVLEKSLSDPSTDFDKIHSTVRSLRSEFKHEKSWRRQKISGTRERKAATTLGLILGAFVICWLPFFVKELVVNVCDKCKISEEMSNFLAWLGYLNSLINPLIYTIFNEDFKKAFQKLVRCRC

[8] = molecular target: D(2) dopamine receptor (Homo sapiens, UniProt P14416); test: Binding affinity to dopamine D2 receptor
Sequence of D(2) dopamine receptor (P14416 whole entry): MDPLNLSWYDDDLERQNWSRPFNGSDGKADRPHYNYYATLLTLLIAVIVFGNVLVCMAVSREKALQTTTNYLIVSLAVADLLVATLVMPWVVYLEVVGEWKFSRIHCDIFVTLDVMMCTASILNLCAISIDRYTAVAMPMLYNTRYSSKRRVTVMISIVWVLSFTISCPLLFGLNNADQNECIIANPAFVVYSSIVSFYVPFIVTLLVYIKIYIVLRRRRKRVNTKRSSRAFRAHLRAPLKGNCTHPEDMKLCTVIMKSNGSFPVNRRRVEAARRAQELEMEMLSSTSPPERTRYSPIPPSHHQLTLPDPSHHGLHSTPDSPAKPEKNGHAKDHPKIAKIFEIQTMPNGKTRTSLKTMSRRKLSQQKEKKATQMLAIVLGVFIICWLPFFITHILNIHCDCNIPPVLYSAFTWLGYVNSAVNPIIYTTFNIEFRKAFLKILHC

[9] = molecular target: Cytochrome P450 3A4 (Homo sapiens) (UniProt P08684); test: Inhibition of CYP3A4
Sequence of Cytochrome P450 3A4 (Homo sapiens) (P08684 whole entry, looked up): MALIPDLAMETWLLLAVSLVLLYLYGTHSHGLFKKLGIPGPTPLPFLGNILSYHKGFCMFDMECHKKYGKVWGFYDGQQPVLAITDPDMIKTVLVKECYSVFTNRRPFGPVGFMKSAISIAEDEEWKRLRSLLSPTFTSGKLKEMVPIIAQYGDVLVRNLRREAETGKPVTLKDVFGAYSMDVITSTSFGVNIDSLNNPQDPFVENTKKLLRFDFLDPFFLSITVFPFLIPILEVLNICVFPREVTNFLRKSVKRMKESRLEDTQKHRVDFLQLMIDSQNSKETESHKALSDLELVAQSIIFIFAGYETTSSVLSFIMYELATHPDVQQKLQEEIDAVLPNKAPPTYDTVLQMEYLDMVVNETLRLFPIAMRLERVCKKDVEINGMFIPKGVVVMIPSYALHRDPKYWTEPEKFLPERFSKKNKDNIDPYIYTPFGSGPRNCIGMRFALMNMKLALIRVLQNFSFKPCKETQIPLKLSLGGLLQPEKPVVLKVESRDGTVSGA

[10] = molecular target: Beta-2 adrenergic receptor (Homo sapiens, UniProt P07550); test: Binding affinity to beta 2 adrenergic receptor
Sequence of Beta-2 adrenergic receptor (P07550 whole entry): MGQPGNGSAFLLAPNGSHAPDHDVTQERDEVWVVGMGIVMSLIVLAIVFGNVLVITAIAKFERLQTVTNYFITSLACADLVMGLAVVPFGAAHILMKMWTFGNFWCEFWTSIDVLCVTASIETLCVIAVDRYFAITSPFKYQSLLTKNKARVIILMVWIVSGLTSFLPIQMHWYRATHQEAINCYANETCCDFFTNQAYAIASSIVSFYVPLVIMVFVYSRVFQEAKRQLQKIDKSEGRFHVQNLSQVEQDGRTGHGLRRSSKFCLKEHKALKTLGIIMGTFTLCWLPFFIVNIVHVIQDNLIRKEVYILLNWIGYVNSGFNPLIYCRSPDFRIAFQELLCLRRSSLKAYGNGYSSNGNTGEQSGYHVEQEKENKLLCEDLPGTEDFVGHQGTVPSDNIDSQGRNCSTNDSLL

[11] = molecular target: 5-hydroxytryptamine receptor 1D (Homo sapiens, UniProt P28221); test: Binding affinity to 5HT1D receptor
Sequence of 5-hydroxytryptamine receptor 1D (P28221 whole entry): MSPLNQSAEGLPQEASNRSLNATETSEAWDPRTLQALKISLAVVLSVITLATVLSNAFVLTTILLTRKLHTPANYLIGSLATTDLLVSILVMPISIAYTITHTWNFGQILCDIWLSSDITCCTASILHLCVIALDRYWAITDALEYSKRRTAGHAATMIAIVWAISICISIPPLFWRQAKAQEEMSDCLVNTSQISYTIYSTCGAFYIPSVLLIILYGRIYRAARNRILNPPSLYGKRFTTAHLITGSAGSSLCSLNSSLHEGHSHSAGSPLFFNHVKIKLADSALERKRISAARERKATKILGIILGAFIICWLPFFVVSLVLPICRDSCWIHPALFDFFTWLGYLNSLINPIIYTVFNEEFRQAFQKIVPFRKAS

[12] = molecular target: 5-hydroxytryptamine receptor 1E (Homo sapiens, UniProt P28566); test: Binding affinity to 5HT1E receptor
Sequence of 5-hydroxytryptamine receptor 1E (P28566 whole entry): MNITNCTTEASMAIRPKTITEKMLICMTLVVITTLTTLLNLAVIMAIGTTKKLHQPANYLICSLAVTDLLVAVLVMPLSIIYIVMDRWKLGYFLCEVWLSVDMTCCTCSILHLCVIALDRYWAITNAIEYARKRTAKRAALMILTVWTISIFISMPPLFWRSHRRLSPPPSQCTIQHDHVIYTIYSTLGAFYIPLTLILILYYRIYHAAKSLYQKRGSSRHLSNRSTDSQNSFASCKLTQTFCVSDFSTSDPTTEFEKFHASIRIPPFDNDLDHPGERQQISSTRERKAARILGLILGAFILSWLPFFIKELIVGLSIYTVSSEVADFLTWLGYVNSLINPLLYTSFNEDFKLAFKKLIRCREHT

[13] = molecular target: Cytochrome P450 2D6 (Homo sapiens, UniProt P10635); test: Inhibition of CYP2D6; type: ADME
Sequence of Cytochrome P450 2D6 (P10635 whole entry): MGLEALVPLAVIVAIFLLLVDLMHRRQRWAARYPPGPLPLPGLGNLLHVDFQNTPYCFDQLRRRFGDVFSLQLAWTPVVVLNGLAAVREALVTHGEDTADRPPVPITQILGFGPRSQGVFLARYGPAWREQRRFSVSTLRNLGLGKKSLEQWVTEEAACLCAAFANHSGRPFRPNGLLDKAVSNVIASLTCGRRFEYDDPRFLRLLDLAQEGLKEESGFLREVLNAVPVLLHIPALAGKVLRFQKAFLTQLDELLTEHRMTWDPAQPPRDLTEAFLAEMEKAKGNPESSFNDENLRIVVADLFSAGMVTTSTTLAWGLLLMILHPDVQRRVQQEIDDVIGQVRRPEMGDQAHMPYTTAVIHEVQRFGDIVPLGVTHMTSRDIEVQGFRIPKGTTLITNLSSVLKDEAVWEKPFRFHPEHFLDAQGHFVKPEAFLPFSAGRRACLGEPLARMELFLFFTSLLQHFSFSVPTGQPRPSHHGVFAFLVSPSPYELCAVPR

| Ki [1] | SMILES | also measured |
| --- | --- | --- |
| 10 nM | O=C(N[C@H]1CCN(CCc2ccc(OC3CCNCC3)c(Br)c2)C1)c1ccc(Cl)c(Cl)c1 | – |
| 15 nM | O=C(N[C@H]1CCN(CCc2ccc(OC3CCNCC3)c(Cl)c2)C1)c1ccc(Cl)c(Cl)c1 | – |
| 110 nM | CC(C)C[C@H](NC(=O)c1cc2ccccc2s1)C(=O)N[C@H]1CCN(Cc2ccc(OCCCN(C)C)cc2)C1 | – |
| 62 nM | O=C(N[C@H]1CCN(CCc2ccc(OC3CCNCC3)c(F)c2)C1)c1ccc(Cl)c(Cl)c1 | – |
| 69 nM | O=C(N[C@H]1CCN(CCc2ccc(OC3CCNCC3)c([N+](=O)[O-])c2)C1)c1ccc(Cl)c(Cl)c1 | – |
| 3 nM | CC(C)C[C@H](NC(=O)c1cc2ccccc2s1)C(=O)N[C@H]1CCN(Cc2ccc(OC3CCNCC3)c(Br)c2)C1 | – |
| 5.5 nM | O=C(N[C@H]1CCN(Cc2ccc(O[C@@H]3CCNC3)c(Br)c2)C1)c1ccc(Cl)c(Cl)c1 | – |
| 44 nM | O=C(N[C@H]1CCN(Cc2ccc(O[C@H]3CCNC3)c(Br)c2)C1)c1ccc(Cl)c(Cl)c1 | – |
| 12 nM | CC(C)C[C@H](NC(=O)c1cc2ccccc2s1)C(=O)N[C@H]1CCN(S(=O)(=O)c2ccc(OC3CCNCC3)c(Br)c2)C1 | – |
| 41 nM | CN1CCC(Oc2ccc(CN3CCC(NC(=O)c4ccc(Cl)c(Cl)c4)C3)cc2Br)C1 (racemic) | – |
| 4 nM | O=C(N[C@H]1CCN(Cc2ccc(OC3CCNCC3)c(Br)c2)C1)c1ccc(Cl)c(Cl)c1 | IC50 [2]: 4 nM; Ki [3]: 38 nM; Ki [4]: 140 nM; Ki [5]: 85 nM; Ki [6]: 4100 nM; Ki [7]: 7200 nM; Ki [8]: 100 nM; IC50 [9]: 1900 nM; Ki [10]: > 10000 nM; Ki [11]: 140 nM; Ki [12]: > 10000 nM; IC50 [13]: 2200 nM |
| 18 nM | CC(C)C[C@H](NC(=O)c1cc2ccccc2s1)C(=O)N[C@H]1CCN(CCc2ccc(O[C@@H]3CCNC3)c(Br)c2)C1 | – |
| 36 nM | COc1cc(CCN2CC[C@H](NC(=O)c3ccc(Cl)c(Cl)c3)C2)ccc1OC1CCNCC1 | – |

The next lines start with the compound.

| SMILES | Ki [1] | also measured |
| --- | --- | --- |
| CN(C)CCCOc1ccc(CN2CCN(C(=O)c3ccc(Cl)c(Cl)c3)CC2)cc1 | > 10000 nM | – |
| CN(C)CCCOc1ccccc1CN1CC[C@H](NC(=O)c2ccc(Cl)c(Cl)c2)C1 | > 10000 nM | – |
| O=C(N[C@@H]1CCN(S(=O)(=O)c2ccc(OC3CCNCC3)c(Br)c2)C1)c1ccc(Cl)c(Cl)c1 | 380 nM | – |
| CN(C)CCCOc1ccc(CN2CC[C@H](NC(=O)c3ccc(Cl)c(Cl)c3)C2)cc1 | – | IC50 [2]: 170 nM |
| CN(C)CCCOc1ccc(CN(C)CCCNC(=O)c2ccc(Cl)c(Cl)c2)cc1 | > 10000 nM | – |
| O=C(N[C@H]1CCN(Cc2ccc(OCCN3CCOCC3)c(Br)c2)C1)c1ccc(Cl)c(Cl)c1 | 3500 nM | – |
| CN(C)CCCOc1ccc(CN2CC[C@H](NC(=O)c3ccc(Br)cc3)C2)cc1 | 320 nM | – |
| CN(C)CCCOc1ccc(CN2CC[C@H](NC(=O)c3ccc(Cl)c(Cl)c3)C2)cc1Br | 61 nM | – |
| CN(C)CCCOc1cccc(CN2CC[C@H](NC(=O)c3ccc(Cl)c(Cl)c3)C2)c1 | > 3000 nM | – |
| CN(C)CCCOc1ccc(CN2CC[C@@H](NC(=O)c3ccc(Br)cc3)C2)cc1 | 350 nM | – |
| CN1CCC(Oc2ccc(CN3CCC(NC(=O)c4ccc(Cl)c(Cl)c4)C3)cc2)C1 (racemic) | 97 nM | – |
| O=C(N[C@H]1CCN(Cc2ccc(OCCN3CCCC3)c(Br)c2)C1)c1ccc(Cl)c(Cl)c1 | 1000 nM | – |
| CN(C)CCCOc1ccc(CN2CCC(NC(=O)c3ccc(Cl)c(Cl)c3)CC2)cc1 | 500 nM | – |
| O=C(N[C@H]1CCN(Cc2ccc(OC3CCN(Cc4ccccc4)CC3)c(Br)c2)C1)c1ccc(Cl)c(Cl)c1 | 230 nM | – |
| O=C(N[C@H]1CCN(Cc2ccc(OCCN3CCNCC3)c(Br)c2)C1)c1ccc(Cl)c(Cl)c1 | 1500 nM | – |
| O=C(N[C@H]1CCN(CCc2ccc(OC3CCNCC3)cc2)C1)c1ccc(Cl)c(Cl)c1 | 42 nM | – |
| O=C(N[C@H]1CCN(S(=O)(=O)c2ccc(OC3CCNCC3)c(Br)c2)C1)c1ccc(Cl)c(Cl)c1 | 120 nM | – |
| O=C(NC1CCCCN(S(=O)(=O)c2ccc(OC3CCNCC3)c(Br)c2)C1)c1ccc(Cl)c(Cl)c1 (racemic) | 71 nM | – |
| O=C(NC1CCN(S(=O)(=O)c2ccc(OC3CCNCC3)c(Br)c2)CC1)c1ccc(Cl)c(Cl)c1 | 140 nM | – |
| Cc1cc(CN2CC[C@H](NC(=O)c3ccc(Cl)c(Cl)c3)C2)ccc1OC1CCN(C)C1 (mixture of isomers) | 108 nM | – |
| CN1CCC(Oc2ccc(CN3CC[C@H](NC(=O)c4ccc(Cl)c(Cl)c4)C3)cc2Cl)C1 (mixture of isomers) | 47 nM | – |
